Experimental data from publication PMC8185074, “Anchor extension: a structure-guided approach to design cyclic peptides targeting enzyme active sites” (Nature Communications, 2021).
Entries after “also recorded” stand apart in the source; their conditions may differ.

What was measured:
Format in all cases: biochemical
[1] = target: T1, HDAC7 (Homo sapiens, UniProt Q8WUI4); assay: HDAC7 profiling of SHA anchor and early peptides
T1 sequence (Q8WUI4 1-952): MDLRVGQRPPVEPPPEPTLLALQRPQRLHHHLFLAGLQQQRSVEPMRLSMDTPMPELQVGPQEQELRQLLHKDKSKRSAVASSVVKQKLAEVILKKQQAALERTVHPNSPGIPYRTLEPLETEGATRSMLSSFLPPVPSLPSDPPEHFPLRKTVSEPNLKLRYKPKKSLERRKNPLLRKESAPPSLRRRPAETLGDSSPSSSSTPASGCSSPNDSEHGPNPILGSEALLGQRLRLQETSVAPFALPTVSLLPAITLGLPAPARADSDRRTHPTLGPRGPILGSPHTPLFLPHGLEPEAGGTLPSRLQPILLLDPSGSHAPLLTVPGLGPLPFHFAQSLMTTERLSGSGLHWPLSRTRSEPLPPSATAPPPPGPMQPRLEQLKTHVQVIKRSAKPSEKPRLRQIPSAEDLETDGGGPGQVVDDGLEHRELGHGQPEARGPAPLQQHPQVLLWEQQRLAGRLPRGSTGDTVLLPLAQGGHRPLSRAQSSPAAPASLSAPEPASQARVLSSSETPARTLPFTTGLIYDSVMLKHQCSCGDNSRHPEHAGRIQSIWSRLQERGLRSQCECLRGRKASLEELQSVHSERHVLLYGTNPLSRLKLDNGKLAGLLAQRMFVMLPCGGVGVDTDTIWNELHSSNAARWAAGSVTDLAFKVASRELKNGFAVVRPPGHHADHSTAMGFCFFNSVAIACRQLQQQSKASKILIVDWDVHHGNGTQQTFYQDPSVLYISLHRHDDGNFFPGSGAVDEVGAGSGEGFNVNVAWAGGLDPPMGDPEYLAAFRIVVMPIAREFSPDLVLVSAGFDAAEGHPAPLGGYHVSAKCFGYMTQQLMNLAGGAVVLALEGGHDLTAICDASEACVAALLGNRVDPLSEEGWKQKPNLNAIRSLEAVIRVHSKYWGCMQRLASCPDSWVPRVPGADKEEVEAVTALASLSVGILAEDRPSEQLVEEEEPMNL

[2] = target: HDAC9 (Homo sapiens, UniProt Q9UKV0); assay: HDAC9 profiling of SHA anchor and early peptides
Chain of HDAC9 (Q9UKV0 whole entry): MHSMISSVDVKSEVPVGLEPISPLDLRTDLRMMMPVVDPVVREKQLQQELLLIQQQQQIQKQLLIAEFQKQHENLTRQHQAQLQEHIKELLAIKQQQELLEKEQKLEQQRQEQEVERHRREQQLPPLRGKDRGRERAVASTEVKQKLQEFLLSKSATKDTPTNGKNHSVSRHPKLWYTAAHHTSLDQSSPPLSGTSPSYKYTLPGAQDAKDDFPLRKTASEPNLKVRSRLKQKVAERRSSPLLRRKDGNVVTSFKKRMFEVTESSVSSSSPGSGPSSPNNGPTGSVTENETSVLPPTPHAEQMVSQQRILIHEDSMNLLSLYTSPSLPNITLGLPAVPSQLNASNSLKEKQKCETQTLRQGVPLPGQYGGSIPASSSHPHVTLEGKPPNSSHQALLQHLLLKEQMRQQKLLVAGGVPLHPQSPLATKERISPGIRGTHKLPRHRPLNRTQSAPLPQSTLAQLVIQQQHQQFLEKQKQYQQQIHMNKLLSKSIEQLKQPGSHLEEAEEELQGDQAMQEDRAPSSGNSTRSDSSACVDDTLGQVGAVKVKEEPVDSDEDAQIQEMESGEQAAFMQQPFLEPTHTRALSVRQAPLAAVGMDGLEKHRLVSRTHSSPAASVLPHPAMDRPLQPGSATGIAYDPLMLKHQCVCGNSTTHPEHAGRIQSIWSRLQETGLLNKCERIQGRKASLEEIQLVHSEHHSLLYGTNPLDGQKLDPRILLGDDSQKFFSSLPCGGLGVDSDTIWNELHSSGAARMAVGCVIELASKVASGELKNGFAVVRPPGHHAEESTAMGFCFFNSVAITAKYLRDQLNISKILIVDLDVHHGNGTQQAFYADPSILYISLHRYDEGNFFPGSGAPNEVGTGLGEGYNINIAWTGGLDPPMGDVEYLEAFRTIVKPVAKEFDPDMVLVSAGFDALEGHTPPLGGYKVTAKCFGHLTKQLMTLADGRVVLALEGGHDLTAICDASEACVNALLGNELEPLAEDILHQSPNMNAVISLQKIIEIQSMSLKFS

[3] = target: HDAC5 (Homo sapiens, UniProt Q9UQL6); assay: HDAC5 profiling of SHA anchor and early peptides
Chain of HDAC5 (Q9UQL6 whole entry): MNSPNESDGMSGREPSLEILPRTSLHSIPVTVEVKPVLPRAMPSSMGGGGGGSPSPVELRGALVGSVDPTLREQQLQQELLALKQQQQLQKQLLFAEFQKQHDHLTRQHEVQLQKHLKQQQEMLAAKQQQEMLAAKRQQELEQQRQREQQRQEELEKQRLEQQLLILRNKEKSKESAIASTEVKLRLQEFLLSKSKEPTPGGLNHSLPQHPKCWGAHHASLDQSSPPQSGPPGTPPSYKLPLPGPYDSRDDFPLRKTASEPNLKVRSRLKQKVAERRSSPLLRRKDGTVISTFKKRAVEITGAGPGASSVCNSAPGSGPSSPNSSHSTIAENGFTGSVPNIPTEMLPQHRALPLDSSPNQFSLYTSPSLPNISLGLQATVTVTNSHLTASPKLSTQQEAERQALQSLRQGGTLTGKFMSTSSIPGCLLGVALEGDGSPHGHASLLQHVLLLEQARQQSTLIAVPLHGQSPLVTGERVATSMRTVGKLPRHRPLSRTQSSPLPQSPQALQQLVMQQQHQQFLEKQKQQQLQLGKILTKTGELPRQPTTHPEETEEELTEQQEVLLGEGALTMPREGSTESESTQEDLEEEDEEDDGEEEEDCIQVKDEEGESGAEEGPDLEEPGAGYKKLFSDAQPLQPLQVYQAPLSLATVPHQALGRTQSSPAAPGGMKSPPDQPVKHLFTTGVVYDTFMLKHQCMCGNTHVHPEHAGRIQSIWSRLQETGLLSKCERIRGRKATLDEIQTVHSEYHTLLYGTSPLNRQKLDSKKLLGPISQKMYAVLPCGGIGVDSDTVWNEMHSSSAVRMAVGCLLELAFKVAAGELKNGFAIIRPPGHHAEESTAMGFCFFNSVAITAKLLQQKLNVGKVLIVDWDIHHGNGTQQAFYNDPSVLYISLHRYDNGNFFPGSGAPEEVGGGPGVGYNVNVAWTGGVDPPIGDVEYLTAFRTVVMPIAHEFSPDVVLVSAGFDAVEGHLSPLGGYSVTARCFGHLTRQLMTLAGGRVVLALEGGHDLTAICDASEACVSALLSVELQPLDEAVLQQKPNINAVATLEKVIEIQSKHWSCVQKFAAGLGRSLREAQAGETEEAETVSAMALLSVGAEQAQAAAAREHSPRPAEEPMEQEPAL

[4] = target: T2, HDAC11 (Homo sapiens, UniProt Q96DB2); assay: HDAC11 profiling of SHA anchor
T2 sequence (Q96DB2 1-347): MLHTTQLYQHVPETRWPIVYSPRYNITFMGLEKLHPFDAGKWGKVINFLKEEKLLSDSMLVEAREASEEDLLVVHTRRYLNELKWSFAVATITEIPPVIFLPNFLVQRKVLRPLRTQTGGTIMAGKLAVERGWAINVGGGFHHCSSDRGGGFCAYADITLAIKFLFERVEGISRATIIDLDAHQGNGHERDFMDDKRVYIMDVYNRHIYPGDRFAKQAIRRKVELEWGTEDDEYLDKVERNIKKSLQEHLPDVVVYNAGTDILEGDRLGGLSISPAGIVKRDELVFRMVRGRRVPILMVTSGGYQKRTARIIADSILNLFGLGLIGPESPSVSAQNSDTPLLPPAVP

SMILES: N[C@@H](CCCCCS)C(=O)O [SHA, 2S-2-amino-7-sulfanylheptanoic acid]
- binding to HDAC7 [1]: not detected binding; also recorded: no binding
- HDAC7 raw activity signal ([1]; Conc. 1.00E-05 M): 490633
- HDAC7 raw activity signal ([1]; Conc. 1.11E-06 M): 609377
- HDAC7 raw activity signal ([1]; Conc. 1.23E-07 M): 577915
- HDAC7 raw activity signal ([1]; Conc. 1.37E-08 M): 439997
- HDAC7 raw activity signal ([1]; Conc. 1.52E-09 M): 431089
- HDAC7 raw activity signal ([1]; Conc. 3.33E-06 M): 551905
- HDAC7 raw activity signal ([1]; Conc. 3.70E-07 M): 580293
- HDAC7 raw activity signal ([1]; Conc. 4.12E-08 M): 536345
- HDAC7 raw activity signal ([1]; Conc. 4.57E-09 M): 413084
- HDAC7 raw activity signal ([1]; Conc. 5.08E-10 M): 366480
- binding to HDAC9 [2]: not detected binding; also recorded: no binding
- HDAC9 raw activity signal ([2]; Conc. 1.00E-05 M): 866095
- HDAC9 raw activity signal ([2]; Conc. 1.11E-06 M): 1324190
- HDAC9 raw activity signal ([2]; Conc. 1.23E-07 M): 1424055
- HDAC9 raw activity signal ([2]; Conc. 1.37E-08 M): 1252931
- HDAC9 raw activity signal ([2]; Conc. 1.52E-09 M): 1327312
- HDAC9 raw activity signal ([2]; Conc. 3.33E-06 M): 1253108
- HDAC9 raw activity signal ([2]; Conc. 3.70E-07 M): 1495255
- HDAC9 raw activity signal ([2]; Conc. 4.12E-08 M): 1362638
- HDAC9 raw activity signal ([2]; Conc. 4.57E-09 M): 1400560
- HDAC9 raw activity signal ([2]; Conc. 5.08E-10 M): 1258385
- binding to HDAC5 [3]: not detected binding; also recorded: no binding
- HDAC5 raw activity signal ([3]; Conc. 1.00E-05 M): 673421
- HDAC5 raw activity signal ([3]; Conc. 1.11E-06 M): 815210
- HDAC5 raw activity signal ([3]; Conc. 1.23E-07 M): 790981
- HDAC5 raw activity signal ([3]; Conc. 1.37E-08 M): 671078
- HDAC5 raw activity signal ([3]; Conc. 1.52E-09 M): 600695
- HDAC5 raw activity signal ([3]; Conc. 3.33E-06 M): 650638
- HDAC5 raw activity signal ([3]; Conc. 3.70E-07 M): 757112
- HDAC5 raw activity signal ([3]; Conc. 4.12E-08 M): 716396
- HDAC5 raw activity signal ([3]; Conc. 4.57E-09 M): 610467
- HDAC5 raw activity signal ([3]; Conc. 5.08E-10 M): 252249
- binding to HDAC11 [4]: no binding
- HDAC11 raw activity signal ([4]; Conc. 1.00E-05 M): 857709
- HDAC11 raw activity signal ([4]; Conc. 1.11E-06 M): 1073570
- HDAC11 raw activity signal ([4]; Conc. 1.23E-07 M): 1094662
- HDAC11 raw activity signal ([4]; Conc. 1.37E-08 M): 1209318
- HDAC11 raw activity signal ([4]; Conc. 1.52E-09 M): 1051037
- HDAC11 raw activity signal ([4]; Conc. 3.33E-06 M): 847001
- HDAC11 raw activity signal ([4]; Conc. 3.70E-07 M): 1077158
- HDAC11 raw activity signal ([4]; Conc. 4.12E-08 M): 1064044
- HDAC11 raw activity signal ([4]; Conc. 4.57E-09 M): 1134026
- HDAC11 raw activity signal ([4]; Conc. 5.08E-10 M): 1061165
